Source: PubChem BioAssay AID2060905 (Molecular Pharmacology Branch, DTP, NCI, 2025)
One block for each compound: values may come before it.

Test system: 282377-053-R-J1-PDC complex spheroid viability
Assay: Anticancer human tumor 282377-053-R-J1-PDC patient-derived colon adenocarcinoma cell line growth inhibition [RAS]
Settings: for IC50: curve of first compound; for viability, T/C: stronger effect = lower value
Outline: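 Multi-cell-type spheroids: tumor cells plus HUVEC endothelial cells and mesenchymal stem cells. RAS-pathway inhibitors were combined with targeted agents, each dosed in half-log steps down from clinical Cmax, or from 10 microM when Cmax was unknown.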

[1] = second compound 0.00316 µM, first compound 0.0316 µM
[2] = second compound 0.00316 µM, first compound 0.1 µM
[3] = second compound 0.00316 µM, first compound 0.316 µM
[4] = second compound 0.00316 µM, first compound 1 µM
[5] = second compound 0.01 µM, first compound 0.0316 µM
[6] = second compound 0.01 µM, first compound 0.1 µM
[7] = second compound 0.01 µM, first compound 0.316 µM
[8] = second compound 0.01 µM, first compound 1 µM
[9] = second compound 0.0316 µM, first compound 0.0316 µM
[10] = second compound 0.0316 µM, first compound 0.1 µM
[11] = second compound 0.0316 µM, first compound 0.316 µM
[12] = second compound 0.0316 µM, first compound 1 µM
[13] = second compound 0.1 µM, first compound 0.0316 µM
[14] = second compound 0.1 µM, first compound 0.1 µM
[15] = second compound 0.1 µM, first compound 0.316 µM
[16] = second compound 0.1 µM, first compound 1 µM
[17] = second compound 0.316 µM, first compound 0.0316 µM
[18] = second compound 0.316 µM, first compound 0.1 µM
[19] = second compound 0.316 µM, first compound 0.316 µM
[20] = second compound 0.316 µM, first compound 1 µM
[21] = second compound 1 µM, first compound 0.0316 µM
[22] = second compound 1 µM, first compound 0.1 µM
[23] = second compound 1 µM, first compound 0.316 µM
[24] = second compound 1 µM, first compound 1 µM
[25] = second compound 0.00316 µM, first compound 0.000949 µM
[26] = second compound 0.00316 µM, first compound 0.003 µM
[27] = second compound 0.00316 µM, first compound 0.00949 µM
[28] = second compound 0.00316 µM, first compound 0.03 µM
[29] = second compound 0.00316 µM, first compound 0.0949 µM
[30] = second compound 0.00316 µM, first compound 0.3 µM
[31] = second compound 0.01 µM, first compound 0.000949 µM
[32] = second compound 0.01 µM, first compound 0.003 µM
[33] = second compound 0.01 µM, first compound 0.00949 µM
[34] = second compound 0.01 µM, first compound 0.03 µM
[35] = second compound 0.01 µM, first compound 0.0949 µM
[36] = second compound 0.01 µM, first compound 0.3 µM
[37] = second compound 0.0316 µM, first compound 0.000949 µM
[38] = second compound 0.0316 µM, first compound 0.003 µM
[39] = second compound 0.0316 µM, first compound 0.00949 µM
[40] = second compound 0.0316 µM, first compound 0.03 µM
[41] = second compound 0.0316 µM, first compound 0.0949 µM
[42] = second compound 0.0316 µM, first compound 0.3 µM
[43] = second compound 0.1 µM, first compound 0.000949 µM
[44] = second compound 0.1 µM, first compound 0.003 µM
[45] = second compound 0.1 µM, first compound 0.00949 µM
[46] = second compound 0.1 µM, first compound 0.03 µM
[47] = second compound 0.1 µM, first compound 0.0949 µM
[48] = second compound 0.1 µM, first compound 0.3 µM
[49] = second compound 0.316 µM, first compound 0.000949 µM
[50] = second compound 0.316 µM, first compound 0.003 µM
[51] = second compound 0.316 µM, first compound 0.00949 µM
[52] = second compound 0.316 µM, first compound 0.03 µM
[53] = second compound 0.316 µM, first compound 0.0949 µM
[54] = second compound 0.316 µM, first compound 0.3 µM
[55] = second compound 1 µM, first compound 0.000949 µM
[56] = second compound 1 µM, first compound 0.003 µM
[57] = second compound 1 µM, first compound 0.00949 µM
[58] = second compound 1 µM, first compound 0.03 µM
[59] = second compound 1 µM, first compound 0.0949 µM
[60] = second compound 1 µM, first compound 0.3 µM
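Note: spheroids exposed to agents for seven days before readout.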
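Throughout, for viability, T/C: luminescence viability as percent of DMSO vehicle control wells.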

- IC50 (second compound 0.00316 µM): < 31.6 nM
- IC50 (second compound 0.01 µM): < 31.6 nM
- IC50 (second compound 0.0316 µM): < 31.6 nM
- IC50 (second compound 0.1 µM): < 31.6 nM
- IC50 (second compound 0.316 µM): < 31.6 nM
- IC50 (second compound 1 µM): < 31.6 nM
Structure (SMILES): CC(=O)OC12COC1CC(O)C1(C)C(=O)C(O)C3=C(C)C(OC(=O)C(O)C(NC(=O)OC(C)(C)C)c4ccccc4)CC(O)(C(OC(=O)c4ccccc4)C21)C3(C)C (stereo not drawn) + C=CC(=O)N1CCN(c2nc(OCC3CCCN3C)nc3c(F)c(-c4nc(N)cc(C)c4C(F)(F)F)c(Cl)cc23)C(C)C1
- viability, T/C [1]: 24.3%
- viability, T/C [2]: 19.9%
- viability, T/C [3]: 16.3%
- viability, T/C [4]: 29.4%
- viability, T/C (second compound 0.00316 µM, first compound 3.16 µM): 39.7%
- viability, T/C (second compound 0.00316 µM, first compound 10 µM): 54.2%
- viability, T/C [5]: 25.9%
- viability, T/C [6]: 18%
- viability, T/C [7]: 22.7%
- viability, T/C [8]: 27.5%
- viability, T/C (second compound 0.01 µM, first compound 3.16 µM): 38.6%
- viability, T/C (second compound 0.01 µM, first compound 10 µM): 51.8%
- viability, T/C [9]: 22.9%
- viability, T/C [10]: 20.5%
- viability, T/C [11]: 18.1%
- viability, T/C [12]: 26.9%
- viability, T/C (second compound 0.0316 µM, first compound 3.16 µM): 34.2%
- viability, T/C (second compound 0.0316 µM, first compound 10 µM): 57.8%
- viability, T/C [13]: 24.1%
- viability, T/C [14]: 21.2%
- viability, T/C [15]: 20.1%
- viability, T/C [16]: 28.1%
- viability, T/C (second compound 0.1 µM, first compound 3.16 µM): 38.4%
- viability, T/C (second compound 0.1 µM, first compound 10 µM): 57.3%
- viability, T/C [17]: 22%
- viability, T/C [18]: 21.6%
- viability, T/C [19]: 24.1%
- viability, T/C [20]: 25.5%
- viability, T/C (second compound 0.316 µM, first compound 3.16 µM): 45.7%
- viability, T/C (second compound 0.316 µM, first compound 10 µM): 53.6%
- viability, T/C [21]: 27.8%
- viability, T/C [22]: 19.3%
- viability, T/C [23]: 28.1%
- viability, T/C [24]: 38%
- viability, T/C (second compound 1 µM, first compound 3.16 µM): 44%
- viability, T/C (second compound 1 µM, first compound 10 µM): 58.6%

- IC50 (second compound 0.00316 µM): > 300 nM
- IC50 (second compound 0.01 µM): > 300 nM
- IC50 (second compound 0.0316 µM): > 300 nM
- IC50 (second compound 0.1 µM): > 300 nM
- IC50 (second compound 0.316 µM): > 300 nM
- IC50 (second compound 1 µM): > 300 nM
Structure (SMILES): CC1(C)CCC(Nc2ncc(C(F)(F)F)c(-c3c[nH]c4c(P(C)(C)=O)c(C#N)ccc34)n2)CN1 (stereo not drawn) + C=CC(=O)N1CCN(c2nc(OCC3CCCN3C)nc3c(F)c(-c4nc(N)cc(C)c4C(F)(F)F)c(Cl)cc23)C(C)C1
- viability, T/C [25]: 114%
- viability, T/C [26]: 120%
- viability, T/C [27]: 79.9%
- viability, T/C [28]: 51.3%
- viability, T/C [29]: 61.1%
- viability, T/C [30]: 55.6%
- viability, T/C [31]: 123%
- viability, T/C [32]: 88.7%
- viability, T/C [33]: 85.1%
- viability, T/C [34]: 64.5%
- viability, T/C [35]: 58.8%
- viability, T/C [36]: 56.1%
- viability, T/C [37]: 91.7%
- viability, T/C [38]: 90.8%
- viability, T/C [39]: 72.3%
- viability, T/C [40]: 59.6%
- viability, T/C [41]: 64.8%
- viability, T/C [42]: 56.1%
- viability, T/C [43]: 105%
- viability, T/C [44]: 101%
- viability, T/C [45]: 91.3%
- viability, T/C [46]: 66.3%
- viability, T/C [47]: 73.1%
- viability, T/C [48]: 61.8%
- viability, T/C [49]: 90.2%
- viability, T/C [50]: 102%
- viability, T/C [51]: 87.9%
- viability, T/C [52]: 65.1%
- viability, T/C [53]: 58.5%
- viability, T/C [54]: 67.1%
- viability, T/C [55]: 92.9%
- viability, T/C [56]: 112%
- viability, T/C [57]: 86.8%
- viability, T/C [58]: 61.6%
- viability, T/C [59]: 67%
- viability, T/C [60]: 71.8%

- IC50 (second compound 0.00316 µM): > 300 nM
- IC50 (second compound 0.01 µM): > 300 nM
- IC50 (second compound 0.0316 µM): > 300 nM
- IC50 (second compound 0.1 µM): > 300 nM
- IC50 (second compound 0.316 µM): > 300 nM
- IC50 (second compound 1 µM): > 300 nM
Structure (SMILES): CCc1c2c(nc3ccc(O)cc13)-c1cc3c(c(=O)n1C2)COC(=O)[C@]3(O)CC + C=CC(=O)N1CCN(c2nc(OCC3CCCN3C)nc3c(F)c(-c4nc(N)cc(C)c4C(F)(F)F)c(Cl)cc23)C(C)C1
- viability, T/C [25]: 117%
- viability, T/C [26]: 122%
- viability, T/C [27]: 122%
- viability, T/C [28]: 99.6%
- viability, T/C [29]: 87.7%
- viability, T/C [30]: 59%
- viability, T/C [31]: 109%
- viability, T/C [32]: 119%
- viability, T/C [33]: 95.1%
- viability, T/C [34]: 93.9%
- viability, T/C [35]: 79.4%
- viability, T/C [36]: 66.1%
- viability, T/C [37]: 99.2%
- viability, T/C [38]: 109%
- viability, T/C [39]: 113%
- viability, T/C [40]: 93.2%
- viability, T/C [41]: 87%
- viability, T/C [42]: 61.7%
- viability, T/C [43]: 115%
- viability, T/C [44]: 126%
- viability, T/C [45]: 124%
- viability, T/C [46]: 85.8%
- viability, T/C [47]: 97.8%
- viability, T/C [48]: 65.1%
- viability, T/C [49]: 128%
- viability, T/C [50]: 114%
- viability, T/C [51]: 123%
- viability, T/C [52]: 98.6%
- viability, T/C [53]: 89.7%
- viability, T/C [54]: 64.2%
- viability, T/C [55]: 135%
- viability, T/C [56]: 126%
- viability, T/C [57]: 106%
- viability, T/C [58]: 94.2%
- viability, T/C [59]: 95.2%
- viability, T/C [60]: 61.2%

- IC50 (second compound 0.00316 µM): 266 nM
- IC50 (second compound 0.01 µM): 257 nM
- IC50 (second compound 0.0316 µM): 215 nM
- IC50 (second compound 0.1 µM): 278 nM
- IC50 (second compound 0.316 µM): 243 nM
- IC50 (second compound 1 µM): 580 nM
Structure (SMILES): Nc1ccn(C2OC(CO)C(O)C2(F)F)c(=O)n1 (stereo not drawn) + C=CC(=O)N1CCN(c2nc(OCC3CCCN3C)nc3c(F)c(-c4nc(N)cc(C)c4C(F)(F)F)c(Cl)cc23)C(C)C1
- viability, T/C (second compound 0.00316 µM, first compound 0.00316 µM): 108%
- viability, T/C (second compound 0.00316 µM, first compound 0.01 µM): 98.9%
- viability, T/C [1]: 99%
- viability, T/C [2]: 80.1%
- viability, T/C [3]: 44.1%
- viability, T/C [4]: 31.6%
- viability, T/C (second compound 0.01 µM, first compound 0.00316 µM): 98.3%
- viability, T/C (second compound 0.01 µM, first compound 0.01 µM): 111%
- viability, T/C [5]: 102%
- viability, T/C [6]: 72.4%
- viability, T/C [7]: 47.8%
- viability, T/C [8]: 35%
- viability, T/C (second compound 0.0316 µM, first compound 0.00316 µM): 117%
- viability, T/C (second compound 0.0316 µM, first compound 0.01 µM): 110%
- viability, T/C [9]: 118%
- viability, T/C [10]: 69.2%
- viability, T/C [11]: 46.9%
- viability, T/C [12]: 33.8%
- viability, T/C (second compound 0.1 µM, first compound 0.00316 µM): 90.1%
- viability, T/C (second compound 0.1 µM, first compound 0.01 µM): 101%
- viability, T/C [13]: 101%
- viability, T/C [14]: 79.8%
- viability, T/C [15]: 47.2%
- viability, T/C [16]: 34.4%
- viability, T/C (second compound 0.316 µM, first compound 0.00316 µM): 117%
- viability, T/C (second compound 0.316 µM, first compound 0.01 µM): 125%
- viability, T/C [17]: 107%
- viability, T/C [18]: 65.6%
- viability, T/C [19]: 52.2%
- viability, T/C [20]: 32.9%
- viability, T/C (second compound 1 µM, first compound 0.00316 µM): 101%
- viability, T/C (second compound 1 µM, first compound 0.01 µM): 101%
- viability, T/C [21]: 99%
- viability, T/C [22]: 88%
- viability, T/C [23]: 65.3%
- viability, T/C [24]: 36.5%
